Experimental data reported in patent EP3666770A1, “NOVEL HETEROCYCLIC COMPOUNDS AS CDK8/19 INHIBITORS” (Joint Stock Company "Biocad", priority 2017, dated 2019).
Several values for one entry are separate records, joined by “and”; a condition that tells them apart may be missing. Equal values may be shown once. Read-outs that look alike come from different tables or passages of the source.

Key:
KG-1 = assay: Cell-based antiproliferative test (AlamarBlue), KG-1; details: Homo sapiens, KG-1; 120 h incubation; average values of several tests; read-out: KG-1 IC50, mkM
Method: (§1) Antiproliferative activity of CDK8 inhibitors according to the present invention was measured in a cell-based test on continuous cell cultures MV4-11 (biphenotypic myelomonocytic leukemia, ATCC® CRL-9591™), KG-1 (acute myeloid leukemia, ATCC® CCL-246™), HL-60 (acute promyelocytic leukemia, ATCC® CCL-240™) using a vital stain AlamarBlue (ThermoFisher, #DAL1100). The cells were grown in RPMI-1640 (PanEco, #C330p) medium with addition of 10% FBS (Gibco, #16140-071); washed and resuspended in culture medium with 10% FBS (Gibco, #16140-071) in 96-well culture plates (Corning, #3599) with ≈ 10 ×10^3 cells in […] of medium per well. The compounds in question were dissolved in DMSO and diluted with a medium with 10% FBS (Gibco, #16140-071) to a final concentration ranging form 0 to 100 µM. […] of diluted compounds were then added to each well (final DMSO concentration was less than 1%) and incubated under 5% CO2 atmosphere at 37°C for 120 h. After incubating, 15 µL of AlamarBlue (ThermoFisher, #DAL1100) reagent was added per well, contents of plates were mixed in an orbital shaker (Biosan, Latvia) and further incubated for 3-5 h at 37°C under 5% CO2 atmosphere. Number of living cells was estimated using a microplate spectrophotometer (Tecan Infinite M200Pro, Switzerland) measuring fluorescent signal at the excitation wavelength (λEx) of 540 nm and emission wavelength (λEm) of 590 nm.
(§2) IC50 was calculated using Magellan 7.2 software (Tecan, Switzerland) approximating experimental points by four-parameter logistic model with the optimization by Levenberg-Marquardt (table 7, table 7).

[1] = Enzyme stability in human liver microsomes; format: in vitro ADME; details: pH 7.4; 0,5 mg/mL pooled human liver microsomes; 10 µM compound; 37°C; pH=7,4
How it was run: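 Pooled human liver microsomes (0,5 mg/mL) incubated at 37 °C with 10 µM compound, 2 mM β-NAD and 4 mM MgCl2 in 0,1 M sodium phosphate, pH 7,4. Samples quenched with acetonitrile and analysed by HPLC. Elimination rate constant taken from the slope of log peak area versus time, giving t1/2 and CLint.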

[2] = Permeability through Caco-2 cell monolayer; format: in vitro ADME; details: human, Caco-2; for Papp A→B at 2 h, 10 µM: A->B transfer, pH 6.5 -> pH 7.4, 2 hours at 37 °C; for efflux ratio at 2 h, 10 µM: efflux = Papp B-A / Papp A-B
Method: Estimation of permeability through Caco-2 cell monolayer enables assessment of the ability of the substances to penetrate through biological membranes by means of both active and passive transport.
Intestinal epithelial cells Caco-2 were grown on filter inserts (pore size 0.4 µm, BD Falcon with High Density) for 21 days; monolayer integrity was then checked using Lucifer Yellow (Sigma-Aldrich, USA) according to the standard protocol. In A->B transfer ("intestinal lumen" - "blood stream" transfer), solutions of the test substances in buffer, pH 6.5 (HBSS, 10 mM HEPES, 15 mM glucose) at a concentration of 10 µM were added to the upper chamber; whereas the lower chamber was filled with buffer, pH 7.4 (HBSS, 10 mM HEPES, 15 mM Glucose, 1% BSA). In B->A transfer ("blood stream" - "intestinal lumen" transfer), the upper chamber was filled with buffer, pH 6.5, whereas the solutions of the test substances in buffer, pH 7.4, at a concentration of 10 µM were added to the lower chamber. A highly permeable substance propranolol was used as a control.
After 2 hours incubation at 37 ° C under an atmosphere containing 5% CO2, the amounts of the test substances in the upper and lower chambers were measured by HPLC using an Agilent1200 HPLC system (Agilent, USA), proteins were preliminarily precipitated with acetonitrile. Chromatographic analysis was performed in a gradient elution regime with a flow rate of 1 mL/min. The peak areas corresponding to the compounds were detected on chromatograms.
The value was calculated using the formula: efflux = Papp B−A /Papp A−B , [formula] where • Papp A-E - the value of permeability direct analysis A→ B; • Papp B-A - the value of the permeability of the reverse analysis B→ A.

MV4-11 = assay: Cell-based antiproliferative test (AlamarBlue), MV4-11; details: Homo sapiens, MV4-11, 120 h, 120 h incubation; average values of several tests; read-out: MV-4-11 IC50, mkM
[3] = Chemical stability in simulated gastric fluid (SGF); format: physicochemical; details: SGF without enzymes, pH=1,4; 10 µm; 2 hours at 37°C; substance amount in % after thermostatting
How it was run: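 Compounds at […] (diluted from DMSO stock) were incubated for 2 h at 37 °C in enzyme-free simulated gastric fluid, pH=1,4. HPLC peak areas before and after incubation gave the % of compound remaining.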

[4] = General cytotoxicity test on HepG2 cells; format: cell-based; details: human, 72 h incubation, 200 to 0.78 µM, average values of several tests, read-out: Hep-G2 CC50, mkM
Method: Cell viability was assessed using the above method. Table 6. […] The results are presented as average values of activity obtained in several tests.

HL-60 = assay: Cell-based antiproliferative test (AlamarBlue), HL-60; details: 120 h incubation, average values of several tests, read-out: HL-60 IC50, mkM
Method: as §1, §2

[5] = Chemical stability in human blood plasma; format: in vitro ADME; details: pooled human blood plasma; 10 µM; 4 hours at 37°C; substance amount in % after thermostatting
How it was run: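 Pooled plasma from ten healthy human donors; compound diluted from 10 mM DMSO stock to 10 µm final and incubated 4 h at 37°C. After acetonitrile protein precipitation, HPLC peak areas before and after incubation were compared; value is % compound remaining.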

[6] = Enzyme stability in human liver S9 fractions; format: in vitro ADME; details: pH 7.4; 0,5 mg/mL pooled human liver S9 fractions; 10 µM compound; 37°C; pH=7,4
Method: Measuring of candidates' enzyme stability enabled estimation of the stability of the present compounds towards the action of enzymes in human liver S9 fractions.
Enzyme degradation rate was measured by incubating the reaction mixture in a dry block thermostat at 37°C, said reaction mixture comprising 0,5 mg/mL of pooled human liver S9 fractions (XenoTech, USA, cat#H0610), 10 µM compound, 2 mM β-nicotinamide adenine dinucleotide (Carbosynth, UK, cat#NN10871) and 4 mM magnesium chloride in 0,1 M sodium-phosphate buffer, pH=7,4. The reaction was quenched with acetonitrile (100 µL of acetonitrile / 100 µL of the reaction mixture). After quenching, the samples were centrifuged at 10000 rpm for 10 minutes. Supernatant fluid was tested by chromatographic technique using Agilent1200 (Agilent, USA). Chromatographic analysis was performed in a gradient elution regime with a flow rate of 1 mL/min. A graph of the logarithm of substance's peak area as a function of time was made.

Compound | IC50 (KG-1) | microsomal CLint at 10 µM [1] | Papp A→B at 2 h, 10 µM [2] | efflux ratio at 2 h, 10 µM [2] | IC50 (MV4-11) | Stability in SGF, % [3] | CC50 at 72 h ([4]; HepG2 cells) | IC50 (HL-60; Homo sapiens, HL-60, 120 h) | Stability in blood plasma, % [5] | CC50 at 72 h [4] | IC50 (HL-60) | microsomal CLint at 10 µM [6]
O=C(c1ccc2ncn(-c3ccc(-c4cn[nH]c4)cc3)c2c1)N1CCCCC1 [CDK8-1-3, (1-(4-(1H-Pyrazol-4-yl)phenyl)-1H-benzo[d]imidazol-6-yl)(piperidin-1-yl) methanone] | 27.6 µM | 24.8 µL/min/mg | 64.1 ×10⁻⁶ cm/s | 0.44 | 2.08 µM | 100% | 59.1 µM | 81.4 µM | 97.7% | – | – | –
O=C(C1CN(c2ccc3ncn(-c4ccc(-c5cn[nH]c5)cc4)c3c2F)C1)N1CCOCC1 [CDK8-1-14, (1-(1-(4-(1H-Pyrazol-4-yl)phenyl)-7-fluoro-1H-benzo[d]imidazol-6-yl)azetidin-3-yl)(morpholino)methanone] | 23.2 µM | 12.4 µL/min/mg | 39.9 ×10⁻⁶ cm/s | 0.79 | – | 92.5% and 100% | > 100 µM | 33.9 µM | 100% | > 50 µM | 60.7 µM | –
Cn1cc(-c2ccc(-c3cncc4ncc(C(=O)N5CCC5)cc34)cc2)cn1 [CDK8-3-14, Azetidin-1-yl-(5-(4-(1-methyl-1H-pyrazol-4-yl)phenyl)-1,7-naphthyridin-3-yl) methanone] | 0.05 µM | 13.6 µL/min/mg | 39.8 ×10⁻⁶ cm/s | 1.35 | 0.2 µM | 100% | > 100 µM | 69.8 µM | 100% | – | – | –
Cn1cc(-c2ccc(-c3cncc4ncc(N5CCCC5=O)cc34)cc2)cn1 [CDK8-3-17, 1-(5-(4-(1-Methyl-1H-pyrazol-4-yl)phenyl)-1,7-naphthyridin-3-yl)pyrrolidin-2-one] | 3.93 µM | 10.7 µL/min/mg | – | – | 8.85 µM | 100% | > 20 µM | 46.5 µM | 100% | – | – | –
COCCNC(=O)c1cnc2cncc(-c3ccc(-c4cnn(C)c4)cc3)c2c1 [CDK8-3-18, N-(2-Methoxyethyl)-5-(4-(1-methyl-1H-pyrazol-4-yl)phenyl)-1,7-naphthyridine-3-carboxamide] | 0.08 µM | 10.4 µL/min/mg | 46.9 ×10⁻⁶ cm/s | 0.9 | 0.19 µM | 100% | > 200 µM | 35 µM | 100% | – | – | –
CO[C@@H]1CCN(C(=O)c2cnc3cncc(-c4ccc(-c5cnn(C)c5)cc4)c3c2)C1 [CDK8-3-19, (R)-(3-Methoxypyrrolidin-1-yl)(5-(4-(1-methyl-1H-pyrazol-4-yl)phenyl)-1,7-naphthyridin-3-yl)methanone] | – | – | – | – | 0.912 µM | – | > 100 µM | – | – | – | – | 2.9 µL/min/mg
CO[C@@H]1CCCN(C(=O)c2cnc3cncc(-c4ccc(-c5cnn(C)c5)cc4)c3c2)C1 [CDK8-3-21, (R)-(3-Methoxypiperidin-1-yl)(5-(4-(1-methyl-1H-pyrazol-4-yl)phenyl)-1,7-naphthyridin-3-yl)methanone] | – | – | – | – | 0.764 µM | – | > 100 µM | – | – | – | – | 12.9 µL/min/mg
CN(C)C(=O)c1cnc2cncc(-c3ccc(-c4cnn(C)c4)cc3)c2c1 [CDK8-3-22, N,N-Methyl-5-(4-(1-methyl-1H-pyrazol-4-yl)phenyl)-1,7-naphthyridine-3-carboxamide] | – | – | – | – | 0.432 µM | – | > 100 µM | – | – | – | – | 3 µL/min/mg
COc1cc(-c2cnc3[nH]cc(C(=O)c4cccnc4)c3c2)ccc1N1CCOCC1 [CDK8-4-27, (5-(3-Methoxy-4-morpholinophenyl)-1H-pyrrolo[2,3-b]pyridin-3-yl) (pyridin-3-yl) methanone] | 5.21 µM | 7.2 µL/min/mg | 84.6 ×10⁻⁶ cm/s | 0.25 | 0.05 µM | 100% | > 100 µM | > 100 µM | 100% | – | – | –
COc1cccc(C(=O)c2c[nH]c3ncc(-c4ccc(N(C)C)cc4)cc23)c1 [CDK8-4-34, (5-(4-(Dimethylamino)phenyl)-1H-pyrrolo[2,3-b]pyridin-3-yl) (3-methoxyphenyl) methanone] | 0.2 µM | 24.2 µL/min/mg | – | – | 0.14 µM | 99.5% | 2.6 µM | 0.081 µM | 100% | – | – | –
Cn1cc(-c2ccc(-c3ccnc4ccc(N5CCCC5=O)cc34)cc2)cn1 [CDK8-6-13, 1-(4-(4-(1-Methyl-1H-pyrazol-4-yl)phenyl)quinolin-6-yl) pyrrolidin-2-one] | 12.3 µM | 22.6 µL/min/mg | – | – | 19.7 µM | 99.7% | > 200 µM | > 60 µM | 98.9% | – | – | –
COCCNC(=O)c1ccc2nccc(-c3ccc(-c4cnn(C)c4)cc3)c2c1 [CDK8-6-14, N-(2-Methoxyethyl)-4-(4-(1-methyl-1H-pyrazol-4-yl)phenyl)quinoline-6-carboxamide] | 9.6 µM | 11.8 µL/min/mg | 64.1 ×10⁻⁶ cm/s | 0.44 | 11.7 µM | 100% | > 50 µM | 66.5 µM | 100% | – | – | –
